Source: patent publication US4436726A, “N-Acylpeptide compound, processes for the preparation thereof and the pharmaceutical compositions” (Fujisawa Pharmaceutical Co., Ltd., priority 1980, dated 1984)

What was measured:
[1] = system: complement serum (guinea pig complement); test: Anticomplementary activity (inhibition of hemolysis of sensitized erythrocytes); format: biochemical; conditions: 50% hemolysis inhibition, 37° C.
Experimental: The anticomplementary activity of the test compound was measured according to the test method as described in Experimental Immunochemistry, edited by E. A. Kabat and M. M. Mayer, 2nd ed., Springfield, III: C. C. Thomas (1961) pages 133-240.
A mixture of 1 ml of a 5-fold diluted solution of a Veronal buffer solution containing 1.5×10^-4 M Ca^2+ and 5×10^-4 M Mg^2+ and isotonic gelatin, 1.5 ml of complement serum (guinea pig complement) diluted 400 times with a physiological saline solution and 0.05 ml of a solution of a test compound (in this case, a test compound was dissolved in a physiological saline solution) was incubated at 37° C. for 30 minutes. To the said mixture there was added 0.4 ml of sensitized erythrocytes suspension containing 5×10^8 cells/ml and said mixture was incubated at 37° C. further for 60 minutes. After the incubation, the mixture was centrifuged in 3,000 rpm at 4° C. for 10 minutes.
The results are expressed in Table 1 as the concentration of each drugs inhibiting the hemolysis activity by 50% (IC50).

[2] = system: blood clot (fresh rabbit blood, urokinase, bovine thrombin); test: Fibrinolytic activity (modified diluted whole blood clot lysis time method); format: biochemical; conditions: 50 μl of test compound (300 μg/ml), 37° C.
Experimental: The enhancement of the fibrinolytic activity of the test compounds was measured according to the modified diluted whole blood clot lysis time method described in
G. R. Fearnley, G. V. Balmforth, E. Fearnley: Clin. Sci. 16, 645-650 (1957)
I. S. Chohan et al: Thrombos. Diathes. Haemorrh. 33, 226 (1975) and
I. M. Nilsson et al: Handbook of Experimental Pharmacology 46, 110
Fresh rabbit blood was diluted 20 times with 1/15 M phosphate buffer (pH 7.4). A mixture of 400 μl of the diluted blood solution and 50 μl of a test compound (300 μg/ml) was incubated at 37° C. for 30 minutes. To the mixture were added 50 μl of urokinase solution (100 IU/ml) and 50 μl of bovine thrombin (100 N.I.H. u/ml). The clot produced in tubes was incubated at 37° C. for various periods of time. At the end of each incubation interval (15 minutes interval), 2.5 ml of distilled water was added to lyse erythrocytes released from clotted blood and absorbance (OD541) of the supernatant separated by centrifugation (3,000 rpm for 10 minutes) from the reaction mixture was measured. The fibrinolytic activity of the test compound was determined by the time in minutes needed for the complete lysis of the blood clot.
In the absence of a test compound, it took more than 2 hours to lyse blood clot in the above condition. However, blood clot was lysed in the presence of test compounds after 15 minutes (symbol: ++) and 45 minutes (symbol: +) incubation, respectively. Samples which were incapable of lysing blood clot within 1 hour incubation were expressed as symbol (-).

| Structure (SMILES) | Anticomplementary Activity (IC50) [1] | Fibrinolytic Activity (time needed for complete lysis of the blood clot) [2] |
| --- | --- | --- |
| CC(C)CCCCCCCCCCCC(=O)OC(CCCCCCCCCCCC(C)C)CC(=O)NCC(=O)N[C@@H](CO)C(=O)O (stereo partly drawn) [Example 1, N-[N-[15-methyl-3-(13-methyltetradecanoyloxy)hexadecanoyl]glycyl]-L-serine] | 1.0 µg/mL |  |
| CCCCCCCCCCCC(=O)OC(CCCCCCCCCCC)CC(=O)NCC(=O)N[C@@H](CO)C(=O)O (stereo partly drawn) [Example 3, N-[N-(3-dodecanoyloxytetradecanoyl)glycyl]-L-serine] | 0.12 µg/mL |  |
| CCCCCCCCCCCCCCCC(=O)OC(CCCCC)CC(=O)NCC(=O)N[C@@H](CO)C(=O)O (stereo partly drawn) [Example 4, N-[N-(3-hexadecanoyloxyoctanoyl)glycyl]-L-serine] | 1.1 µg/mL |  |
| CCCCCCCCCCCCCCCC(=O)OC(CCCCCCCCCCCCCCC)CC(=O)NCCC(=O)N[C@H](C(=O)O)[C@@H](C)O (stereo partly drawn) [Example 7, N-[N-(3-hexadecanoyloxyoctadecanoyl)-β-alanyl]-L-threonine] | 0.02 to 0.03 µg/mL |  |
| CC(C)CCCCCCCCCCCC(=O)OC(CCCCCCCCCCCC(C)C)CC(=O)NCCC(=O)N[C@H](C(=O)O)[C@@H](C)O (stereo partly drawn) [Example 8, N-[N-[15-methyl-3-(13-methyltetradecanoyloxy)hexadecanoyl]-β-alanyl]-L-threonine] | 0.04 to 0.06 µg/mL |  |
| CC(C)CCCCCCCCCCCC(=O)OC(CCCCCCCCCCCC(C)C)CC(=O)NCCC(=O)N[C@@H](CO)C(=O)O (stereo partly drawn) [Example 9, N-[N-[15-methyl-3-(13-methyltetradecanoyloxy)hexadecanoyl]-β-alanyl]-L-serine] | 0.1 µg/mL | + (45 minutes (symbol: +) incubation) |
| CCCCCCCCCCCCCCCC(=O)OC(CCCCCCCCCCCCCCC)CC(=O)NCCC(=O)N[C@@H](CO)C(=O)O (stereo partly drawn) [Example 10, N-[N-(3-hexadecanoyloxyoctadecanoyl)-β-alanyl]-L-serine] | 0.03 to 0.04 µg/mL |  |
| CC(C)CCCCCCCCCCCC(=O)OC(CCCCCCCCCCCC(C)C)CC(=O)NCC(=O)N[C@H](C(=O)O)[C@@H](C)O (stereo partly drawn) [Example 11, N-[N-[15-methyl-3-(13-methyltetradecanoyloxy)hexadecanoyl]glycyl]-L-threonine] | 0.36 µg/mL | + (45 minutes (symbol: +) incubation) |
| CC(C)CCCCCCCCCCCC(=O)OC(CCCCCCCCCCCC(C)C)CC(=O)N[C@@H](C)C(=O)N[C@@H](CO)C(=O)O (stereo partly drawn) [Example 12, N-[N-[15-methyl-3-(13-methyltetradecanoyloxy)hexadecanoyl]L-alanyl]-L-serine] | 0.59 µg/mL |  |
| CC(C)CCCCCCCCCCCC(=O)OC(CCCCCCCCCCCC(C)C)CC(=O)N[C@@H](C)C(=O)N[C@H](C(=O)O)[C@@H](C)O (stereo partly drawn) [Example 13, N-[N-[15-methyl-3-(13-methyltetradecanoyloxy)hexadecanoyl]-L-alanyl]-L-thr eonine] | 0.72 µg/mL |  |
| CCCCCCCCCCCCCCCC(=O)OC(CCCCCCCCCCCCCCC)CC(=O)N[C@@H](C)C(=O)N[C@H](C(=O)O)[C@@H](C)O (stereo partly drawn) [Example 14, N-[N-(3-hexadecanoyloxyoctadecanoyl)-L-alanyl]-L-threonine] | 0.23 µg/mL |  |
| CC(C)CCCCCCCCCCCC(=O)OC(CCCCCCCCCCCC(C)C)CC(=O)NCC(=O)N[C@@H](Cc1ccccc1)C(=O)O (stereo partly drawn) [Example 15, N-[N-[15-methyl-3-(13-methyltetradecanoyloxy)hexadecanoyl]glycyl]-L-phenyl alanine] | 2.8 µg/mL | ++ (blood clot was lysed in the presence of test compounds after 15 minutes (symbol: ++)) |
| CC(C)CCCCCCCCCCCC(=O)OC(CCCCCCCCCCCC(C)C)CC(=O)NCCC(=O)N[C@@H](Cc1c[nH]cn1)C(=O)O (stereo partly drawn) [Example 16, N-[N-[15-methyl-3-(13-methyltetradecanoyloxy)hexadecanoyl]-β-alanyl]-L-histidine] | 4.2 µg/mL |  |
| CC(C)CCCCCCCCCCCC(=O)OC(CCCCCCCCCCCC(C)C)CC(=O)NCC(=O)N[C@@H](Cc1ccc(O)cc1)C(=O)O (stereo partly drawn) [Example 18, N-[N-[15-methyl-3-(13-methyltetradecanoyloxy)hexadecanoyl]glycyl]-L-tyrosine] | 3.2 µg/mL | + (45 minutes (symbol: +) incubation) |
| CC(C)CCCCCCCCCCCC(=O)OC(CCCCCCCCCCCC(C)C)CC(=O)NCC(=O)O (stereo not drawn) [Example 19, N-[15-methyl-3-(13-methyltetradecanoyloxy)hexadecanoyl]glycine] | 4.0 µg/mL | + (45 minutes (symbol: +) incubation) |
| CC(C)CCCCCCCCCCCC(=O)OC(CCCCCCCCCCCC(C)C)CC(=O)N[C@@H](CO)C(=O)O (stereo partly drawn) [Example 20, N-[15-methyl-3-(13-methyltetradecanoyloxy)hexadecanoyl]-L-serine] | 2.8 µg/mL | + (45 minutes (symbol: +) incubation) |
| CCCCCCCCCCCCCCCC(=O)OC(CCCCCCCCCCCCCCC)CC(=O)N[C@@H](Cc1ccccc1)C(=O)O (stereo partly drawn) [Example 26, N-(3-hexadecanoyloxyoctadecanoyl)-L-phenylalanine] | 3.5 µg/mL | + (45 minutes (symbol: +) incubation) |
| CCCCCCCCCCCCCCCC(=O)OC(CCCCCCCCCCCCCCC)CC(=O)NCC(=O)O (stereo not drawn) [Example 27, N-(3-hexadecanoyloxyoctadecanoyl)glycine] | 0.44 µg/mL | + (45 minutes (symbol: +) incubation) |
| CCCCCCCCCCCCCCCC(=O)OC(CCCCCCCCCCCCCCC)CC(=O)N[C@H](C(=O)N[C@H](C(=O)O)[C@@H](C)O)C(C)C (stereo partly drawn) [Example 29, N-[N-(3-hexadecanoyloxyoctadecanoyl)-L-valyl]-L-threonine] | 0.59 µg/mL |  |
| CCCCCCCCCCCCCCCC(=O)OC(CCCCCCCCCCCCCCC)CC(=O)NCCC(=O)N[C@@H](Cc1ccccc1)C(=O)O (stereo partly drawn) [Example 32, N-[N-(3-hexadecanoyloxyoctadecanoyl)-β-alanyl]-L-phenylalanine] | 1.32 µg/mL | ++ (blood clot was lysed in the presence of test compounds after 15 minutes (symbol: ++)) |
| CCCCCCCCCCCCCCCC(=O)OC(CCCCCCCCCCCCCCC)CC(=O)NCCCCC(=O)N[C@H](C(=O)O)[C@@H](C)O (stereo partly drawn) [Example 34, N-[5-(3-hexadecanoyloxyoctadecanoyl)aminovaleryl]-L-threonine] | 0.02 µg/mL | + (45 minutes (symbol: +) incubation) |
| CCCCCCCCCCCCCCCC(=O)OC(CCCCCCCCCCCCCC)C(=O)NCC(=O)N[C@@H](CO)C(=O)O (stereo partly drawn) [Example 35, N-[N-(2-hexadecanoyloxyhexadecanoyl)glycyl]-L-serine] | 0.03 µg/mL | + (45 minutes (symbol: +) incubation) |
| CCCCCCCCCCCCCCCC(=O)OC(CCCCCCCCCCCCCC)C(=O)NCCC(=O)N[C@H](C(=O)O)[C@@H](C)O (stereo partly drawn) [Example 36, N-[N-(2-hexadecanoyloxyhexadecanoyl)-β-alanyl]-L-threonine] | 0.08 µg/mL | + (45 minutes (symbol: +) incubation) |
| CCCCCCCCCCCCCCCC(=O)OC(CCCCCCCCCCCCCCC)CC(=O)NCC(=O)N[C@@H](Cc1ccccc1)C(=O)O (stereo partly drawn) [Example 38, N-[N-(3-hexadecanoyloxyoctadecanoyl)glycyl]-L-phenylalanine] | 3.4 µg/mL | + (45 minutes (symbol: +) incubation) |
| CCCCCCCCCCCCCCCC(=O)OC(CCCCCCCCCCCCCCC)CC(=O)NCC(=O)N[C@@H](Cc1c[nH]c2ccccc12)C(=O)O (stereo partly drawn) [Example 43, N-[N-(3-hexadecanoyloxyoctadecanoyl)glycyl]-L-tryptophan] | 5.11 µg/mL | + (45 minutes (symbol: +) incubation) |
